# Test results taken from PubChem BioAssay AID1745844 (Carcinogenic Potency Database (CPDB), 2022).
# “And” between values parts separate entries of the source, which are not always exact repeats. Equal entries are not always repeated. The source made the active and inactive calls. How the calls were made is not given here.
# Tested on: rodent lifetime carcinogenesis bioassay, tumor incidence TD50
# Test: chronic cancer bioassays in animals – CPDB, compiled studies (AID 1745844)
# [1] = mouse, strain ICI, males, by gavage, site: liver, lesion: several types, types named in the paper, dosed 80 weeks, study length 98 weeks
# [2] = mouse, strain ICI, males, by gavage, site: lung, lesion: several types, types named in the paper, dosed 80 weeks, study length 98 weeks
smiles,measurement,setting,value
ClC(Cl)Cl,TD50,"dog, strain Beagle, females, in feed, site: any site (literature study), lesion: several types, types named in the paper, dosed 376 weeks, study length 397 weeks",10 mg/kg/day (inactive)
same,carcinogen call,"dog, strain Beagle, females, in feed, site: liver, lesion: one or several types, types not named, dosed 376 weeks, study length 397 weeks",negative (inactive)
same,TD50,"dog, strain Beagle, males, in feed, site: any site (literature study), lesion: several types, types named in the paper, dosed 376 weeks, study length 397 weeks",13.3 mg/kg/day (inactive)
same,carcinogen call,"dog, strain Beagle, males, in feed, site: liver, lesion: one or several types, types not named, dosed 376 weeks, study length 397 weeks",negative (inactive)
same,TD50,"mouse, strain B6C3F1, females, by gavage, site: any site (literature study), lesion: several types, types named in the paper, dosed 78 weeks, study length 92 weeks",54.1 mg/kg/day
same,TD50,"mouse, strain B6C3F1, females, by gavage, site: liver, lesion: hepatocellular adenoma + hepatocellular carcinoma + neoplastic nodule, dosed 78 weeks, study length 92 weeks",48 mg/kg/day
same,TD50,"mouse, strain B6C3F1, females, by gavage, site: liver, lesion: hepatocellular carcinoma, dosed 78 weeks, study length 92 weeks",48 mg/kg/day
same,carcinogen call,"mouse, strain B6C3F1, females, in drinking water, site: any site (literature study), lesion: several types, types named in the paper, dosed 104 weeks, study length 104 weeks",negative (inactive)
same,carcinogen call,"mouse, strain B6C3F1, females, in drinking water, site: liver, lesion: hepatocellular adenoma, dosed 104 weeks, study length 104 weeks",negative (inactive)
same,TD50,"mouse, strain B6C3F1, females, in drinking water, site: liver, lesion: hepatocellular carcinoma, dosed 104 weeks, study length 104 weeks",20200 mg/kg/day (inactive)
same,carcinogen call,"mouse, strain B6C3F1, females, in drinking water, site: liver, lesion: several types, types named in the paper, dosed 104 weeks, study length 104 weeks",negative (inactive)
same,TD50,"mouse, strain B6C3F1, males, by gavage, site: any site (literature study), lesion: several types, types named in the paper, dosed 78 weeks, study length 92 weeks",71.1 mg/kg/day
same,TD50,"mouse, strain B6C3F1, males, by gavage, site: liver, lesion: hepatocellular adenoma + hepatocellular carcinoma + neoplastic nodule, dosed 78 weeks, study length 92 weeks",56.2 mg/kg/day
same,TD50,"mouse, strain B6C3F1, males, by gavage, site: liver, lesion: hepatocellular carcinoma, dosed 78 weeks, study length 92 weeks",56.2 mg/kg/day
same,carcinogen call,"mouse, strain C57BL, males, by gavage, site: any site (literature study), lesion: several types, types named in the paper, dosed 80 weeks, study length 104 weeks",negative (inactive)
same,carcinogen call,"mouse, strain C57BL, males, by gavage, site: liver, lesion: one or several types, types not named, dosed 80 weeks, study length 104 weeks",negative (inactive)
same,TD50,"mouse, strain C57BL, males, by gavage, site: lung, lesion: several types, types named in the paper, dosed 80 weeks, study length 104 weeks",728 mg/kg/day (inactive)
same,carcinogen call,"mouse, strain CBA, males, by gavage, site: any site (literature study), lesion: several types, types named in the paper, dosed 80 weeks, study length 104 weeks",negative (inactive)
same,carcinogen call,"mouse, strain CBA, males, by gavage, site: liver, lesion: several types, types named in the paper, dosed 80 weeks, study length 104 weeks",negative (inactive)
same,carcinogen call,"mouse, strain CBA, males, by gavage, site: lung, lesion: several types, types named in the paper, dosed 80 weeks, study length 104 weeks",negative (inactive)
same,TD50,"mouse, strain CF-1, males, by gavage, site: any site (literature study), lesion: several types, types named in the paper, dosed 80 weeks, study length 93 weeks",140 mg/kg/day (inactive)
same,TD50,"mouse, strain CF-1, males, by gavage, site: liver, lesion: one or several types, types not named, dosed 80 weeks, study length 93 weeks",1430 mg/kg/day (inactive)
same,TD50,"mouse, strain CF-1, males, by gavage, site: lung, lesion: several types, types named in the paper, dosed 80 weeks, study length 93 weeks",376 mg/kg/day (inactive)
same,TD50,"mouse, strain CFLP, males, by gavage, site: kidney, lesion: several types, types named in the paper, dosed 80 weeks, study length 104 weeks",153 mg/kg/day
same,carcinogen call,"mouse, strain CFLP, males, by gavage, site: liver, lesion: one or several types, types not named, dosed 80 weeks, study length 104 weeks",negative (inactive)
same,TD50,"mouse, strain CFLP, males, by gavage, site: lung, lesion: one or several types, types not named, dosed 80 weeks, study length 104 weeks",4350 mg/kg/day (inactive)
same,TD50,"mouse, strain Crj:BDF1, females, inhaled, site: liver, lesion: hepatocellular carcinoma, dosed 104 weeks, study length 104 weeks",2670 mg/kg/day
same,TD50,"mouse, strain Crj:BDF1, females, inhaled, site: liver, lesion: several types, types named in the paper, dosed 104 weeks, study length 104 weeks",909 mg/kg/day
same,TD50,"mouse, strain Crj:BDF1, females, inhaled, site: pituitary gland, lesion: adenoma, dosed 104 weeks, study length 104 weeks",2070 mg/kg/day
same,TD50,"mouse, strain Crj:BDF1, males, inhaled, site: kidney, lesion: renal-cell adenoma, dosed 104 weeks, study length 104 weeks",1250 mg/kg/day
same,TD50,"mouse, strain Crj:BDF1, males, inhaled, site: kidney, lesion: renal-cell carcinoma, dosed 104 weeks, study length 104 weeks",287 mg/kg/day
same,TD50,"mouse, strain Crj:BDF1, males, inhaled, site: kidney, lesion: several types, types named in the paper, dosed 104 weeks, study length 104 weeks",226 mg/kg/day
same,TD50,"mouse, strain Crj:BDF1, males, inhaled, site: liver, lesion: several types, types named in the paper, dosed 104 weeks, study length 104 weeks",402 mg/kg/day
same,TD50,"mouse, strain Crj:BDF1, males, inhaled, site: lung, lesion: alveolar/bronchiolar carcinoma, dosed 104 weeks, study length 104 weeks",3530 mg/kg/day
same,carcinogen call,"mouse, strain ICI, females, by gavage, site: any site (literature study), lesion: several types, types named in the paper, dosed 80 weeks, study length 96 weeks",negative (inactive)
same,carcinogen call,"mouse, strain ICI, females, by gavage, site: liver, lesion: one or several types, types not named, dosed 80 weeks, study length 96 weeks",negative (inactive)
same,TD50,"mouse, strain ICI, females, by gavage, site: lung, lesion: one or several types, types not named, dosed 80 weeks, study length 96 weeks",316 mg/kg/day (inactive)
same,TD50,"mouse, strain ICI, males, by gavage, site: any site (literature study), lesion: several types, types named in the paper, dosed 80 weeks, study length 96 weeks",45.4 mg/kg/day
same,TD50,"mouse, strain ICI, males, by gavage, site: any site (literature study), lesion: several types, types named in the paper, dosed 80 weeks, study length 98 weeks",88.5 mg/kg/day
same,TD50,"mouse, strain ICI, males, by gavage, site: kidney, lesion: several types, types named in the paper, dosed 80 weeks, study length 96 weeks",139 mg/kg/day
same,TD50,"mouse, strain ICI, males, by gavage, site: kidney, lesion: several types, types named in the paper, dosed 80 weeks, study length 98 weeks",278 mg/kg/day and 95.5 mg/kg/day
same,TD50,"mouse, strain ICI, males, by gavage, site: liver, lesion: one or several types, types not named, dosed 80 weeks, study length 96 weeks",324 mg/kg/day (inactive)
same,TD50,[1],437 mg/kg/day (inactive)
same,carcinogen call,[1],negative (inactive)
same,TD50,"mouse, strain ICI, males, by gavage, site: lung, lesion: one or several types, types not named, dosed 80 weeks, study length 96 weeks",9830 mg/kg/day (inactive)
same,TD50,[2],336 mg/kg/day (inactive)
same,carcinogen call,[2],negative (inactive)
same,TD50,"rat, strain F344/DuCrj, females, inhaled, site: kidney, lesion: renal-cell adenoma, dosed 104 weeks, study length 104 weeks",1590 mg/kg/day (inactive)
same,TD50,"rat, strain F344/DuCrj, females, inhaled, site: kidney, lesion: transitional-cell carcinoma, dosed 104 weeks, study length 104 weeks",1590 mg/kg/day (inactive)
same,TD50,"rat, strain F344/DuCrj, females, inhaled, site: liver, lesion: hepatocellular adenoma, dosed 104 weeks, study length 104 weeks",2180 mg/kg/day (inactive)
same,carcinogen call,"rat, strain F344/DuCrj, males, inhaled, site: kidney, lesion: one or several types, types not named, dosed 104 weeks, study length 104 weeks",negative (inactive)
same,carcinogen call,"rat, strain F344/DuCrj, males, inhaled, site: liver, lesion: several types, types named in the paper, dosed 104 weeks, study length 104 weeks",negative (inactive)
same,TD50,"rat, strain Osborne-Mendel, females, by gavage, site: any site (literature study), lesion: several types, types named in the paper, dosed 78 weeks, study length 110 weeks",68.2 mg/kg/day
same,TD50,"rat, strain Osborne-Mendel, females, by gavage, site: liver, lesion: hepatocellular adenoma + hepatocellular carcinoma + neoplastic nodule, dosed 78 weeks, study length 110 weeks",1130 mg/kg/day
same,TD50,"rat, strain Osborne-Mendel, females, by gavage, site: thyroid gland, lesion: c-cell adenoma + c-cell carcinoma + follicular-cell adenoma + follicular-cell carcinoma, dosed 78 weeks, study length 110 weeks",126 mg/kg/day (inactive)
same,TD50,"rat, strain Osborne-Mendel, males, by gavage, site: any site (literature study), lesion: several types, types named in the paper, dosed 78 weeks, study length 110 weeks",194 mg/kg/day
same,TD50,"rat, strain Osborne-Mendel, males, by gavage, site: kidney, lesion: tubular-cell adenoma + tubular-cell adenocarcinoma, dosed 78 weeks, study length 110 weeks",119 mg/kg/day
same,TD50,"rat, strain Osborne-Mendel, males, by gavage, site: liver, lesion: hepatocellular adenoma + hepatocellular carcinoma + neoplastic nodule, dosed 78 weeks, study length 110 weeks",455 mg/kg/day
same,TD50,"rat, strain Osborne-Mendel, males, in drinking water, site: all sites, lesion: neurofibroma, dosed 104 weeks, study length 104 weeks",2200 mg/kg/day
same,TD50,"rat, strain Osborne-Mendel, males, in drinking water, site: all sites, lesion: several types, types named in the paper, dosed 104 weeks, study length 104 weeks",1360 mg/kg/day
same,TD50,"rat, strain Osborne-Mendel, males, in drinking water, site: any site (literature study), lesion: several types, types named in the paper, dosed 104 weeks, study length 104 weeks",1970 mg/kg/day
same,TD50,"rat, strain Osborne-Mendel, males, in drinking water, site: kidney, lesion: several types, types named in the paper, dosed 104 weeks, study length 104 weeks",519 mg/kg/day and 606 mg/kg/day
same,TD50,"rat, strain Osborne-Mendel, males, in drinking water, site: kidney, lesion: tubular-cell adenoma, dosed 104 weeks, study length 104 weeks",972 mg/kg/day
same,TD50,"rat, strain Sprague-Dawley, females, by gavage, site: any site (literature study), lesion: malignant tumor, dosed 80 weeks, study length 95 weeks",276 mg/kg/day (inactive)
same,TD50,"rat, strain Sprague-Dawley, females, by gavage, site: any site (literature study), lesion: several types, types named in the paper, dosed 80 weeks, study length 95 weeks",78.3 mg/kg/day (inactive)
same,TD50,"rat, strain Sprague-Dawley, females, by gavage, site: liver, lesion: cystadenoma, dosed 80 weeks, study length 95 weeks",1200 mg/kg/day (inactive)
same,carcinogen call,"rat, strain Sprague-Dawley, males, by gavage, site: any site (literature study), lesion: malignant tumor, dosed 80 weeks, study length 95 weeks",negative (inactive)
same,carcinogen call,"rat, strain Sprague-Dawley, males, by gavage, site: any site (literature study), lesion: several types, types named in the paper, dosed 80 weeks, study length 95 weeks",negative (inactive)
same,carcinogen call,"rat, strain Sprague-Dawley, males, by gavage, site: liver, lesion: one or several types, types not named, dosed 80 weeks, study length 95 weeks",negative (inactive)
same,TD50,"rat, strain Wistar, females, in drinking water, site: liver, lesion: hepatocellular carcinoma, dosed 187 weeks, study length 187 weeks",10000 mg/kg/day
same,TD50,"rat, strain Wistar, females, in drinking water, site: liver, lesion: neoplastic nodule, dosed 187 weeks, study length 187 weeks",883 mg/kg/day
same,TD50,"rat, strain Wistar, males, in drinking water, site: kidney, lesion: adenocarcinoma, dosed 172 weeks, study length 172 weeks",5300 mg/kg/day
same,TD50,"rat, strain Wistar, males, in drinking water, site: kidney, lesion: adenoma, dosed 172 weeks, study length 172 weeks",5300 mg/kg/day
same,TD50,"rat, strain Wistar, males, in drinking water, site: liver, lesion: hepatocellular carcinoma, dosed 172 weeks, study length 172 weeks",5300 mg/kg/day
